Among the data in US8895544B2, “Indazoles” (Pfizer Limited, priority 2011, dated 2014) are IC50 values, retold here.

Counter-ions that a name gives are not always drawn.

Experiment [1] has as its target JAK1 enzyme (Homo sapiens (Human), UniProt P23458). The experiment in a line: JAK1 isolated enzyme high ATP Caliper endpoint assay.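 Further: enzyme at 10 nM preincubated with inhibitor 30 min, then kinase reaction 120 min at room temperature, peptide phosphorylation read by microfluidic mobility shift with fluorescence, inhibition relative to HPE and ZPE plate controls.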 The experiment is classed as biochemical. The settings on record: 2.5 mM ATP, read-out: JAK-1 IC50.
Procedure: JAK1 Isolated Enzyme High ATP Caliper Endpoint Assay
4 mM stock solutions of test compounds are prepared and serially diluted in 100% DMSO. A standard curve using PF-00956980 (commercially available from Sigma Aldrich) at a top concentration of 4 mM is also prepared. High percentage effect (HPE) is defined by 500 μM PF-00956980 and 0% effect (ZPE) is defined by 100% DMSO. Greiner 384 well plates are prepared containing 400 nl of serially diluted compound, standard and HPE/ZPE. Final top assay concentration is 80 μM as the assay dilution factor is fifty.
JAK1 enzyme (Invitrogen) stock solution is made up at 5.2 μM in sterile water. JAK1 enzyme stock is diluted to 20 nM in assay buffer (10 mM HEPES free acid pH 7.5, 10 mM HEPES free base pH 7.5, 10 mM MgCL2, 0.0005% Tween-20, 0.01% BSA) containing 2 mM DTT (all supplied by Sigma) with the addition of one protease tablet per 25 mls buffer (Roche). ATP is made up at 10 mM stock in sterile water and diluted to 5 mM in assay buffer. Peptide H236 (Caliper Life Sciences) is made up at 1.5 mM in 100% DMSO and diluted to 3 μM in assay buffer. Stop buffer comprises 140 mM HEPES, 22.5 mM EDTA (Sigma) and 0.15% coating reagent (Caliper Life Sciences).
Assays are performed in Greiner polypropylene 384 well plates. Following compound preparation within the plate 10 μl of enzyme in assay buffer containing DTT is added using a Multidrop Micro. Final assay concentration of enzyme is 10 nM. Compound and enzyme are pre-incubated for 30 minutes at room temperature using low evaporation lids before addition of 10 μl ATP/peptide mixture in assay buffer using a Multidrop Micro. Final assay concentrations are 2.5 mM ATP and 1.5 μM peptide. Plates are foil sealed and incubated for a further 120 minutes at room temperature. Stop solution is added to the plates (20 μl/well) using a Multidrop Micro and plates are loaded onto the Caliper EZReader II. Data is generated by the shift in mobility of non-phosphorylated peptide substrates and phosphorylated products by electrophoresis within a chip and detected via LED induced fluorescence. Data is analysed using LabChip EZReader software which calculates the relative heights of the substrate and product peaks and reports product/product plus substrate peak ratio. Test compound data are subsequently expressed as percentage inhibition defined by HPE and ZPE values for each plate. Percentage inhibition in the presence of test compound is plotted against compound concentration on a log scale to determine an IC50 from the resultant sigmoid curve.
Experiment [2] addresses JAK3 enzyme (Homo sapiens (Human), UniProt P52333). The experiment in a line: JAK3 isolated enzyme high ATP Caliper endpoint assay. The experiment is classed as biochemical. The note with it: 400 μM ATP, read-out: JAK-3 IC50.
Procedure: JAK3 Isolated Enzyme High ATP Caliper Endpoint Assay
4 mM stock solutions of test compounds are prepared and serially diluted in 100% DMSO. […] Greiner 384 well plates are prepared containing 400 nl of serially diluted compound, standard and HPE/ZPE. Final top assay concentration is 80 μM as the assay dilution factor is fifty.
JAK3 enzyme stock is diluted to 2 nM in assay buffer (10 mM HEPES free acid pH 7.5, 10 mM HEPES free base pH 7.5, 10 mM MgCL2, 0.0005% Tween-20, 0.01% BSA) containing 2 mM DTT (all supplied by Sigma). ATP is made up at 10 mM stock in sterile water and diluted to 800 μM in assay buffer. Peptide (American peptide company) is made up at 30 mM in 100% DMSO and diluted to 3 μM in assay buffer.
Assays are performed in Greiner polypropylene 384 well plates. Following compound preparation within the plate 10 μl of enzyme in assay buffer containing DTT is added using a Multidrop Micro. Final assay concentration of enzyme is 1 nM. Compound and enzyme are pre-incubated for 60 minutes at room temperature using low evaporation lids before addition of 10 μl ATP/peptide mixture in assay buffer using a Multidrop Micro. […] Plates are foil sealed and incubated for a further 60 minutes at room temperature. Stop solution is added to the plates (20 μl/well) using a Multidrop Micro and plates are loaded onto the Caliper EZReader II. Data is generated by the shift in mobility of non-phosphorylated peptide substrates and phosphorylated products by electrophoresis within a chip and detected via LED induced fluorescence. Data is analysed using LabChip EZReader software which calculates the relative heights of the substrate and product peaks and reports product/product plus substrate peak ratio. Test compound data are subsequently expressed as percentage inhibition defined by HPE and ZPE values for each plate. Percentage inhibition in the presence of test compound is plotted against compound concentration on a log scale to determine an IC50 from the resultant sigmoid curve.

Chain of JAK3 enzyme (P52333 whole entry): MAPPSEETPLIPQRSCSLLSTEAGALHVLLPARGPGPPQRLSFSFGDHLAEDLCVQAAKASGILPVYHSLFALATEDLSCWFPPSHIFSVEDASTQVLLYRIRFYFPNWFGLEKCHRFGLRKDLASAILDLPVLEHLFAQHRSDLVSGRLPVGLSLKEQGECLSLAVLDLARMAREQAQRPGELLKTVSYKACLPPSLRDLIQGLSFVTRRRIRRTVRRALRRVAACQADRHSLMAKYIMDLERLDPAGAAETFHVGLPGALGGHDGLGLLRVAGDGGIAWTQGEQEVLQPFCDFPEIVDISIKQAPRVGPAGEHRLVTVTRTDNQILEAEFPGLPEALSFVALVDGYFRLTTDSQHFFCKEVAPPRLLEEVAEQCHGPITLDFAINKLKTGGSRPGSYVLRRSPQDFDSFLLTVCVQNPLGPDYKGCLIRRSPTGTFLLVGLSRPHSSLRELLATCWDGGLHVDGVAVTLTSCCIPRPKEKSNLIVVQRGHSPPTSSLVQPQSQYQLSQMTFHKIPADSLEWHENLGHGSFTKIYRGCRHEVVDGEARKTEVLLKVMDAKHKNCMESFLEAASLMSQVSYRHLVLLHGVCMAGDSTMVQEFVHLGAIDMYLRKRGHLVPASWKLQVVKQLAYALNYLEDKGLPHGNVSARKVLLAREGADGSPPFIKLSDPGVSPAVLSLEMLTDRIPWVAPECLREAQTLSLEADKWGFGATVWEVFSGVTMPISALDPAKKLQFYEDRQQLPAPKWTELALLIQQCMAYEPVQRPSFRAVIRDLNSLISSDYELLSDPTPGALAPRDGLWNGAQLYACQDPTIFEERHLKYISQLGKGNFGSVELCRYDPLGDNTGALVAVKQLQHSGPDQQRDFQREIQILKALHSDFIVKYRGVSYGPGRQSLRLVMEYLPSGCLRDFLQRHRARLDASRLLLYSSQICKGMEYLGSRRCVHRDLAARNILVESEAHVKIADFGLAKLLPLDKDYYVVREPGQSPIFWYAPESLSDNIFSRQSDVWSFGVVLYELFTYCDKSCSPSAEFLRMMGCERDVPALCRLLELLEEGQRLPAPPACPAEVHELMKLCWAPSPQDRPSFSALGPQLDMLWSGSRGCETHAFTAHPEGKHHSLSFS
Chain of JAK1 enzyme (P23458 whole entry): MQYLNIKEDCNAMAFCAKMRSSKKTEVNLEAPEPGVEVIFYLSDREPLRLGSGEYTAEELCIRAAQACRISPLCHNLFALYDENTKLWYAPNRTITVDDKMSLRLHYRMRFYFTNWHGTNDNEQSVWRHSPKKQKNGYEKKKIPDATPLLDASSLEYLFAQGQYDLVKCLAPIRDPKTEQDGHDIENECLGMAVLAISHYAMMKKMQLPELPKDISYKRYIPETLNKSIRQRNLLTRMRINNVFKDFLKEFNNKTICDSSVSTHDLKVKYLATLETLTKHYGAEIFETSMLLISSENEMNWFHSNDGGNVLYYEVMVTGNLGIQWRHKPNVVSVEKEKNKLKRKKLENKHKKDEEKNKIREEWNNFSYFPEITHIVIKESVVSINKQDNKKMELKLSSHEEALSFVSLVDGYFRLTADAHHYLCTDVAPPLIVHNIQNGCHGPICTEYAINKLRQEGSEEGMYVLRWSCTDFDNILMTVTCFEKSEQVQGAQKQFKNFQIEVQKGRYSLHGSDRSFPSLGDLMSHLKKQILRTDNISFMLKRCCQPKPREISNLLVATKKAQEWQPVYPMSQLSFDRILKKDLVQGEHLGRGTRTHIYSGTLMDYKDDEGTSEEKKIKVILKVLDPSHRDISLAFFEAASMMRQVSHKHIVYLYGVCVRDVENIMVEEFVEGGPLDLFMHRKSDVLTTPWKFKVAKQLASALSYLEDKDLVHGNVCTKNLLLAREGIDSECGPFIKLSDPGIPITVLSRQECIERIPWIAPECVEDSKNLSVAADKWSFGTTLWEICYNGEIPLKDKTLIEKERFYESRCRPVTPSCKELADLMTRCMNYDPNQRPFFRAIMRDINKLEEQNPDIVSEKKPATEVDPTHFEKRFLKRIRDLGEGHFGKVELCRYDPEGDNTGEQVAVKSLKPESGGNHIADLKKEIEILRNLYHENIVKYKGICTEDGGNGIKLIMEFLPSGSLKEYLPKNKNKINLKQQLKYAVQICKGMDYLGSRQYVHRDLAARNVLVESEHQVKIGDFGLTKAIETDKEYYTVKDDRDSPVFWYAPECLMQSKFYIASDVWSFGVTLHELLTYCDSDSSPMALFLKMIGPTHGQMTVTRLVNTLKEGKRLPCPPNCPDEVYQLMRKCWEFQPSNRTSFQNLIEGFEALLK

One may read the IC50 as the concentration that inhibits the measured activity by half. For `CCc1cc(O)c(F)cc1-c1ccc2c(-c3nc4c([nH]3)CCN(C(=O)c3ccc(F)cc3)C4)n[nH]c2c1` [Example 1, {2-[6-(2-Ethyl-5-fluoro-4-hydroxy-phenyl)-1H-indazol-3-yl]-1,4,6,7-tetrahydro-imidazo[4,5-c]pyridin-5-yl}-(4-fluoro-phenyl)-methanone], the IC50 in experiment [1] is below 0.7 nM; in experiment [2], below 0.6 nM. For `CCc1cc(O)c(F)cc1-c1ccc2c(-c3nc4c([nH]3)CCN(C(=O)c3ccsn3)C4)n[nH]c2c1` [Example 2, {2-[6-(2-Ethyl-5-fluoro-4-hydroxy-phenyl)-1H-indazol-3-yl]-1,4,6,7-tetrahydro-imidazo[4,5-c]pyridin-5-yl}-isothiazol-3-yl-methanone], in that order: 46 nM and 0.5 nM. For `CCc1cc(O)c(F)cc1-c1ccc2c(-c3nc4c([nH]3)CCN(S(=O)(=O)c3ccc(N5CCOCC5)nc3)C4)n[nH]c2c1` [Example 6, 5-Ethyl-2-fluoro-4-{3-[5-(6-morpholin-4-yl-pyridine-3-sulfonyl)-4,5,6,7-tetrahydro-1H-imidazo[4,5-c]pyridin-2-yl]-1H-indazol-6-yl}-phenol], in that order: 8.4 nM and 1.3 nM. In the same order, the values of `CCc1cc(O)c(F)cc1-c1ccc2c(-c3nc4c([nH]3)CCN(S(=O)(=O)c3ccc(Oc5ccccc5)nc3)C4)n[nH]c2c1` [Example 7, 5-Ethyl-2-fluoro-4-{3-[5-(6-phenoxy-pyridine-3-sulfonyl)-4,5,6,7-tetrahydro-1H-imidazo[4,5-c]pyridin-2-yl]-1H-indazol-6-yl}-phenol] are 2.5 nM and 1.5 nM. Turning to `CCc1cc(O)c(F)cc1-c1ccc2c(-c3nc4c([nH]3)CCN(C(=O)c3ccc(Cl)cn3)CC4)n[nH]c2c1` [Example 8, (5-Chloro-pyridin-2-yl)-{2-[6-(2-ethyl-5-fluoro-4-hydroxy-phenyl)-1H-indazol-3-yl]-4,5,7,8-tetrahydro-1H-imidazo[4,5-d]azebin-6-yl}-methanone], the IC50 amounted to 2.9 nM in experiment [1] and 1.4 nM in experiment [2]. In the case of `CCc1cc(O)c(F)cc1-c1ccc2c(-c3nc4c([nH]3)CCN(C(=O)c3cc(C#N)ccn3)CC4)n[nH]c2c1` [Example 9, 2-{2-[6-(2-Ethyl-5-fluoro-4-hydroxy-phenyl)-1H-indazol-3-yl]-4,5,7,8-tetrahydro-1H-imidazo[4,5-d]azepine-6-carbonyl}-isonicotinonitrile], the 50% inhibitory concentration (IC50) stood at 18.9 nM in experiment [1] and 1.9 nM in experiment [2]. As for `CCc1cc(O)c(F)cc1-c1ccc2c(-c3nc4c([nH]3)CCN(C(=O)c3ccc(F)cc3)CC4)n[nH]c2c1` [Example 10, {2-[6-(2-Ethyl-5-fluoro-4-hydroxy-phenyl)-1H-indazol-3-yl]-4,5,7,8-tetrahydro-1H-imidazo[4,5-d]azepin-6-yl}-(4-fluoro-phenyl)-methanone], the results for the IC50 in experiment [1] and in experiment [2] were 4.5 nM and 1.3 nM, respectively.

For `CCc1cc(O)c(F)cc1-c1ccc2c(-c3nc4c([nH]3)CCN(C(=O)c3ccsn3)CC4)n[nH]c2c1` [Example 11, {2-[6-(2-Ethyl-5-fluoro-4-hydroxy-phenyl)-1H-indazol-3-yl]-4,5,7,8-tetrahydro-1H-imidazo[4,5-d]azepin-6-yl}-isothiazol-3-yl-methanone], the results for the concentration for half-maximal inhibition (IC50) in experiment [1] and in experiment [2] were 2.5 nM and 1 nM, respectively. In the same order, the values of `CCc1cc(O)c(F)cc1-c1ccc2c(-c3nc4c([nH]3)CCN(S(=O)(=O)c3ccc(F)cc3)C4)n[nH]c2c1` [Example 12, 5-Ethyl-2-fluoro-4-{3-[5-(4-fluoro-benzenesulfonyl)-4,5,6,7-tetrahydro-1H-imidazo[4,5-c]pyridin-2-yl]-1H-indazol-6-yl}-phenol] are 1.2 nM and 1.6 nM. For `CCc1cc(O)c(F)cc1-c1ccc2c(-c3nc4c([nH]3)CCN(C(=O)c3cnc(Oc5ccccc5F)cn3)C4)n[nH]c2c1` [Example 13, {2-[6-(2-Ethyl-5-fluoro-4-hydroxy-phenyl)-1H-indazol-3-yl]-1,4,6,7-tetrahydro-imidazo[4,5-c]pyridin-5-yl}-[5-(2-fluoro-phenoxy)-Dvrazin-2-yl]-methanone], in that order: 1.5 nM and 3.6 nM. In the same order, the values of `CCc1cc(O)c(F)cc1-c1ccc2c(-c3nc4c([nH]3)CCN(Cc3ccccc3)CC4)n[nH]c2c1` [Example 14, 4-[3-(6-Benzyl-1,4,5,6,7,8-hexahydro-imidazo[4,5-d]azepin-2-yl)-1H-indazol-6-yl]-5-ethyl-2-fluoro-phenol] are 0.8 nM and 1.4 nM.

Turning to `CCc1cc(O)c(F)cc1-c1ccc2c(-c3nc4c([nH]3)CCN(C(=O)c3ccc(Cl)cn3)C4)n[nH]c2c1` [Example 15, (5-Chloro-pyridin-2-yl)-{2-[6-(2-ethyl-5-fluoro-4-hydroxy-phenyl)-1H-indazol-3-yl]-1,4,6,7-tetrahydro-imidazo[4,5-d]pyridin-5-yl}-methanone], the IC50 in experiment [2] came out at 1 nM. `CCc1cc(O)c(F)cc1-c1ccc2c(-c3nc4c([nH]3)CCN(C(=O)c3ccc(C#N)nc3)C4)n[nH]c2c1` [Example 16, 5-{2-[6-(2-Ethyl-5-fluoro-4-hydroxy-phenyl)-1H-indazol-3-yl]-1,4,6,7-tetrahydro-imidazo[4,5-c]pyridine-5-carbonyl}-pyridine-2-carbonitrile]: the half-inhibitory concentration (IC50) stood at 0.7 nM in experiment [1] and 1.9 nM in experiment [2]. In the same order, the values of `CCc1cc(O)c(F)cc1-c1ccc2c(-c3nc4c([nH]3)CCN(Cc3ccc(O)cc3)C4)n[nH]c2c1` [Example 19, 5-Ethyl-2-fluoro-4-{3-[5-(4-hydroxy-benzyl)-4,5,6,7-tetrahydro-1H-imidazo[4,5-c]pyridin-2-yl]-1H-indazol-6-yl}-phenol] are 4.3 nM and 2.2 nM.

On to `CCc1cc(O)c(F)cc1-c1ccc2c(-c3nc4c([nH]3)CCN(Cc3cccc(O)c3)C4)n[nH]c2c1` [Example 20, 5-Ethyl-2-fluoro-4-{3-[5-(3-hydroxy-benzyl)-4,5,6,7-tetrahydro-1H-imidazo[4,5-c]pyridin-2-yl]-1H-indazol-6-yl}-phenol], for which the half-inhibitory concentration (IC50) in experiment [1] amounted to 2.6 nM; in experiment [2], 5.6 nM. In the same order, the values of `CCc1cc(O)c(F)cc1-c1ccc2c(-c3nc4c([nH]3)CCN(Cc3ccnc(C#N)c3)C4)n[nH]c2c1` [Example 21, 4-{2-[6-(2-Ethyl-5-fluoro-4-hydroxy-phenyl)-1H-indazol-3-yl]-1,4,6,7-tetrahydro-imidazo[4,5-c]pyridin-5-ylmethyl}-pyridine-2-carbonitrile] are 5.9 nM and 1.4 nM. For `CCc1cc(O)c(F)cc1-c1ccc2c(-c3nc4c([nH]3)CCN(Cc3cccc(OC)c3)C4)n[nH]c2c1` [Example 22, 5-Ethyl-2-fluoro-4-{3-[5-(3-methoxy-benzyl)-4,5,6,7-tetrahydro-1H-imidazo[4,5-c]pyridin-2-yl]-1H-indazol-6-yl}-phenol formic acid salt], in that order: 3 nM and 2.6 nM. In the same order, the values of `CCc1cc(O)c(F)cc1-c1ccc2c(-c3nc4c([nH]3)CCN(Cc3cnc5ccccc5c3)C4)n[nH]c2c1` [Example 23, 5-Ethyl-2-fluoro-4-[3-(5-quinolin-3-ylmethyl-4,5,6,7-tetrahydro-1H-imidazo[4,5-c]pyridin-2-yl)-1H-indazol-6-yl]-phenol] are 1.7 nM and 1.2 nM.

Consider `CCc1cc(O)c(F)cc1-c1ccc2c(-c3nc4c([nH]3)CCN(Cc3ccc(Oc5ccccc5)nc3)C4)n[nH]c2c1` [Example 24, 5-Ethyl-2-fluoro-4-{3-[5-(6-phenoxy-pyridin-3-ylmethyl)-4,5,6,7-tetrahydro-1H-imidazo[4,5-c]pyridin-2-yl]-1H-indazol-6-yl}-phenol], for which the 50% inhibitory concentration (IC50) in experiment [1] came out at 6.2 nM; in experiment [2], 2.4 nM. On to `CCc1cc(O)c(F)cc1-c1ccc2c(-c3nc4c([nH]3)CCN(Cc3ccc(N5CCCCC5)nc3)C4)n[nH]c2c1` [Example 25, 5-Ethyl-2-fluoro-4-{3-[5-(3,4,5,6-tetrahydro-2H-[1,2′]bipyridinyl-5′-ylmethyl)-4,5,6,7-tetrahydro-1H-imidazo[4,5-c]pyridin-2-yl]-1H-indazol-6-yl}-phenol], for which the IC50 in experiment [1] is 4 nM.

Turning to `CCc1cc(O)c(F)cc1-c1ccc2c(-c3nc4c([nH]3)CCN(Cc3cccnc3C#N)C4)n[nH]c2c1` [Example 26, 3-{2-[6-(2-Ethyl-5-fluoro-4-hydroxy-phenyl)-1H-indazol-3-yl]-1,4,6,7-tetrahydro-imidazo[4,5-c]pyridin-5-ylmethyl}-pyridine-2-carbonitrile], the half-inhibitory concentration (IC50) in experiment [1] is 4 nM; in experiment [2], 4.1 nM. In the same order, the values of `CCc1cc(O)c(F)cc1-c1ccc2c(-c3nc4c([nH]3)CCN(Cc3ccc5cccnc5n3)C4)n[nH]c2c1` [Example 28, 5-Ethyl-2-fluoro-4-[3-(5-[1,8]naphthyridin-2-ylmethyl-4,5,6,7-tetrahydro-1H-imidazo[4,5-c]pyridin-2-yl)-1H-indazol-6-yl]-phenol] are 13.7 nM and 10.9 nM. Take `O=C(c1cnc(N2CCCCC2)cn1)N1CCc2[nH]c(-c3n[nH]c4cc(-c5cc(F)c(O)cc5CC(F)(F)F)ccc34)nc2C1` [Example 29, (2-{6-[5-Fluoro-4-hydroxy-2-(2,2,2-trifluoro-ethyl)-pheny]-1H-indazol-3-yl}-1,4,6,7-tetrahydro-imidazo[4,5-c]pyridin-5-yl)-(5-piperidin-1-yl-pyrazin-2-yl)-methanone diethylamine salt]: the 50% inhibitory concentration (IC50) in experiment [1] amounted to 1.1 nM; in experiment [2], 42 nM.

As to `O=C(c1ccc(F)cc1)N1CCc2[nH]c(-c3n[nH]c4cc(-c5cc(F)c(O)cc5CC(F)(F)F)ccc34)nc2C1` [Example 30, (2-{6-[5-Fluoro-4-hydroxy-2-(2,2,2-trifluoro-ethyl)-phenyl]-1H-indazol-3-yl}-1,4,6,7-tetrahydro-imidazo[4,5-c]pyridin-5-yl)-(4-fluoro-phenyl)-methanone diethylamine salt], the IC50 in experiment [1] was 7.7 nM; in experiment [2], 6.7 nM.

In the case of “{2-[6-(2-Ethyl-5-fluoro-4-hydroxy-phenyl)-1H-indazol-3-yl]-1,4,6,7-tetrahydro-imidazo[4,5-c]pyridin-5-yl}-isothiazol-3-yl-methanone [Example 3]”, the half-maximal inhibitory concentration (IC50) in experiment [1] was 3.7 nM.
